Measurements reported in patent US9695154B2, “Heteroaryl inhibitors of sumo activating enzyme” (MILLENNIUM PHARMACEUTICALS, INC., priority 2013, dated 2017).

Target: T1, recombinant human SAE enzyme (Homo sapiens, UniProt Q9UBT2)
T1 sequence (Q9UBT2 1-640): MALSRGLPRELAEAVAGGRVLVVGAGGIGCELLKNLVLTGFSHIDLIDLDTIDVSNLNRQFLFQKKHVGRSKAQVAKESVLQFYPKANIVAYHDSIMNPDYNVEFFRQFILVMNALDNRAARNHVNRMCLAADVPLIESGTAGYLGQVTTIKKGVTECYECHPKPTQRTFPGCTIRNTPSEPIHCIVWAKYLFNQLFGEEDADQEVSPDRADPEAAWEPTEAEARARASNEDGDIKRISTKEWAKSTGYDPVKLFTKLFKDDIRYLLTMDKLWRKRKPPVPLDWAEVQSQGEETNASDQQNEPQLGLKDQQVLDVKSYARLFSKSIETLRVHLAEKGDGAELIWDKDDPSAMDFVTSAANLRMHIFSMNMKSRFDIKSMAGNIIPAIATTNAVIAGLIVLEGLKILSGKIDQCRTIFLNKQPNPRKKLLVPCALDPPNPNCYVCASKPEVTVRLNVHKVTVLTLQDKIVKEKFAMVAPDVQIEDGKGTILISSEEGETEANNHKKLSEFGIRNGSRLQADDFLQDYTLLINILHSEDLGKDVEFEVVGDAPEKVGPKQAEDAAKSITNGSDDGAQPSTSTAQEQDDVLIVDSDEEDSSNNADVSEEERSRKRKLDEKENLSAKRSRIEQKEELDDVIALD
T1 sequence (Q9UBE0 1-346 partner): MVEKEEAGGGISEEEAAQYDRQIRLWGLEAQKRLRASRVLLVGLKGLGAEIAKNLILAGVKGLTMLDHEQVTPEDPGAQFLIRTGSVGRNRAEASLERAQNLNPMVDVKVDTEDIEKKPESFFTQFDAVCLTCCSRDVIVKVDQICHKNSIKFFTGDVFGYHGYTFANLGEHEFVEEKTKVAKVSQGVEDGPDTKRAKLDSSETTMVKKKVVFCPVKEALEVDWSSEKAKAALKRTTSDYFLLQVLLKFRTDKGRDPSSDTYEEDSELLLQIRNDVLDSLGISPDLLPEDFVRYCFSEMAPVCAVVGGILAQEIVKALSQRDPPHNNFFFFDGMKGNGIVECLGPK
Assay: SAE HTRF Enzyme Assay
Type: biochemical
Details: for IC50: class symbols A-C; for Percent Inhibition / inhibition at 0.111 µM: compound concentration 0.111 μM; for Percent Inhibition: 0.111 µM; for inhibition at 0.111 µM: read-out: Percent Inhibition
Description: The SAE enzymatic reaction totals 50 μl and contains 50 mM HEPES Hemisodium (pH 7.5), 0.05% BSA, 5 mM MgCl2, 0.5 μM ATP, 250 μM GSH, 0.01 μM Ubc9-GST, 0.125 μM Sumo-Flag and 0.11 nM recombinant human SAE enzyme. The enzymatic reaction mixture with and without inhibitor, Is incubated at 24° C. for 105 min in a 384-well plate before termination with […] of Stop/Detection buffer (0.1M HEPES Hemisodium pH 7.5, 0.05% Tween20, 20 mM EDTA, 410 mM KF, 0.53 nM Europium-Cryptate labeled monoclonal anti-Flag M2 Antibody (CisBio International) and 8.125 μg/ml PHYCOLINK goat anti-GST allophycocyanin (XL-APC) antibody (Prozyme)). After incubation for 2 hours at 24° C., quantification of FRET is performed on the Pherostar™ (BMG Labtech). Percentage inhibition values at a single concentration or enzyme inhibition (IC50) values are determined from those curves. One skilled in the art will appreciate that the values generated either as percentage inhibition at a single concentration or IC50 values are subject to experimental variation.

Structure (SMILES) | IC50 [nM] | Percent Inhibition [%] | inhibition at 0.111 µM [%]
NS(=O)(=O)OC[C@H]1C[C@@H](Nc2ncncc2C(=O)c2ccn(C3CCc4ccccc43)n2)[C@H](O)[C@@H]1O (single isomer, unassigned) [Compound I-353, {(1R,2R,3S,4R)-4-[(5-{[1-((1R)-2,3-dihydro-1H-inden-1-yl)-1H-pyrazol-3-yl]carbonyl}pyrimidin-4-yl)amino]-2,3-dihydroxycyclopentyl}methyl sulfamate or {(1R,2R,3S,4R)-4-[(5-{[1-((1S)-2,3-dihydro-1H-inden-1-yl)-1H-pyrazol-3-yl]carbonyl}pyrimidin-4-yl)amino]-2,3-dihydroxycyclopentyl}methyl sulfamate] | 10 to 100 | 90 | –
CC(c1ccc(Cl)o1)n1ccc(C(=O)c2cncnc2N[C@@H]2C[C@H](COS(N)(=O)=O)[C@@H](O)C2)n1 (single isomer, unassigned) [Compound I-354, [(1R,2S,4R)-4-{[5-({1-[(1 S)-1-(5-chloro-2-furyl)ethyl]-1H-pyrazol-3-yl}carbonyl)pyrimidin-4-yl]amino}-2-hydroxycyclopentyl]methyl sulfamate or [(1R,2S,4R)-4-{[5-({1-[(1R)-1-(5-chloro-2-furyl)ethyl]-1H-pyrazol-3-yl}carbonyl)pyrimidin-4-yl]amino}-2-hydroxycyclopentyl]methyl sulfamate] | 10 to 100 | – | 79
C#Cc1cccc([C@H](C)n2ccc(C(=O)c3cncnc3N[C@@H]3C[C@H](COS(N)(=O)=O)[C@@H](O)C3)n2)c1 (single isomer, unassigned) [Compound I-355] | < 10 | – | 99
CCC(c1cccc(Br)c1)n1ccc(C(=O)c2cncnc2N[C@@H]2C[C@H](COS(N)(=O)=O)[C@@H](O)[C@@H]2F)c1 (single isomer, unassigned) [Compound I-356, [(1R,2R,3R,4R)-4-{[5-({1-[(1S)-1-(3-bromophenyl)propyl]-1H-pyrrol-3-yl}carbonyl)pyrimidin-4-yl]amino}-3-fluoro-2-hydroxycyclopentyl]methyl sulfamate or [(1R,2R,3R,4R)-4-{[5-({1-[(1R)-1-(3-bromophenyl)propyl]-1H-pyrrol-3-yl}carbonyl)pyrimidin-4-yl]amino}-3-fluoro-2-hydroxycyclopentyl]methyl sulfamate] | 10 to 100 | 85 | –
CC(c1ccc(C(F)(F)F)o1)n1ccc(C(=O)c2cncnc2N[C@@H]2C[C@H](COS(N)(=O)=O)[C@@H](O)[C@@H]2F)c1 (single isomer, unassigned) [Compound I-357, [(1R,2R,3R,4R)-3-fluoro-2-hydroxy-4-({5-[(1-{(1S)-1-[5-(trifluoromethyl)-2-furyl]ethyl}-1H-pyrrol-3-yl)carbonyl]pyrimidin-4-yl}amino)cyclopentyl]methyl sulfamate or [(1R,2R,3R,4R)-3-fluoro-2-hydroxy-4-({5-[(1-{(1R)-1-[5-(trifluoromethyl)-2-furyl]ethyl}-1H-pyrrol-3-yl)carbonyl]pyrimidin-4-yl}amino)cyclopentyl]methyl sulfamate] | < 10 | 100 | –
CC(c1cccc(Br)c1)n1ccc(C(=O)c2cncnc2N[C@@H]2C[C@H](COS(N)(=O)=O)[C@@H](O)C2)n1 (single isomer, unassigned) [Compound I-358, [(1R,2S,4R)-4-{[5-({1-[(1S)-1-(3-bromophenyl)ethyl]-1H-pyrazol-3-yl}carbonyl)pyrimidin-4-yl]amino}-2-hydroxycyclopentyl]methyl sulfamate or [(1R,2S,4R)-4-{[5-({1-[(1R)-1-(3-bromophenyl)ethyl]-1H-pyrazol-3-yl}carbonyl)pyrimidin-4-yl]amino}-2-hydroxycyclopentyl]methyl sulfamate] | < 10 | 95 | –
NS(=O)(=O)OC[C@H]1C[C@@H](Nc2ncncc2C(=O)c2ccn(CC3CC3c3ccccc3)c2)[C@@H](F)[C@@H]1O (single isomer, unassigned) [Compound I-359, [(1R,2R,3R,4R)-3-fluoro-2-hydroxy-4-{[5-({1-[(1R,2R)-(2-phenylcyclopropyl)methyl]-1H-pyrrol-3-yl}carbonyl)pyrimidin-4-yl]amino}cyclopentyl]methyl sulfamate or [(1R,2R,3R,4R)-3-fluoro-2-(hydroxy-4-{[5-({1-[(1S,2S)-(2-phenylcyclopropyl)methyl]-1H-pyrrol-3-yl}carbonyl)pyrimidin-4-yl]amino}cyclopentyl]methyl sulfamate] | 10 to 100 | 68 | –
CC(c1cccc(Cl)c1)n1ccc(C(=O)c2cncnc2N[C@@H]2C[C@H](COS(N)(=O)=O)[C@@H](O)C2)n1 (single isomer, unassigned) [Compound I-360, [(1R,2S,4R)-4-{[5-({1-[(1S)-1-(3-chlorophenyl)ethyl]-1H-pyrazol-3-yl}carbonyl)pyrimidin-4-yl]amino}-2-hydroxycyclopentyl]methyl sulfamate or [(1R,2S,4R)-4-{[5-({1-[(1R)-1-(3-chlorophenyl)ethyl]-1H-pyrazol-3-yl}carbonyl)pyrimidin-4-yl]amino}-2-hydroxycyclopentyl]methyl sulfamate] | < 10 | 99 | –
CC(c1ccccc1)n1ccc(C(=O)c2cncnc2N[C@@H]2C[C@H](COS(N)(=O)=O)[C@@H](O)[C@H]2O)n1 (single isomer, unassigned) [Compound I-361, {(1R,2R,3S,4R)-2,3-dihydroxy-4-[(5-{[1-((1S)-1-phenylethyl)-1H-pyrazol-3-yl]carbonyl}pyrimidin-4-yl)amino]cyclopentyl}methyl sulfamate or {(1R,2R,3S,4R)-2,3-dihydroxy-4-[(5-{[1-((1R)-1-phenylethyl)-1H-pyrazol-3-yl]carbonyl}pyrimidin-4-yl)amino]cyclopentyl}methyl sulfamate] | 10 to 100 | 85 | –
CC#CC(C)n1ccc(C(=O)c2cncnc2N[C@@H]2C[C@H](COS(N)(=O)=O)[C@@H](O)C2)n1 (single isomer, unassigned) [Compound I-362, {(1R,2S,4R)-2-hydroxy-4-[(5-{[(1S)-1-(pent-3-yn-2-yl)-1H-pyrazol-3-yl]carbonyl}pyrimidin-4-yl)amino]cyclopentyl}methyl sulfamate or {(1R,2S,4R)-2-hydroxy-4-[(5-{[(1R)-1-(pent-3-yn-2-yl)-1H-pyrazol-3-yl]carbonyl}pyrimidin-4-yl)amino]cyclopentyl}methyl sulfamate] | 10 to 100 | – | 52
CC(c1cccc(Br)c1)n1ccc(C(=O)c2cncnc2N[C@@H]2C[C@H](COS(N)(=O)=O)[C@@H](O)[C@@H]2F)c1 (single isomer, unassigned) [Compound I-363, [(1R,2R,3R,4R)-4-{[5-({1-[(1S)-1-(3-bromophenyl)ethyl]-1H-pyrrol-3-yl}carbonyl)pyrimidin-4-yl]amino}-3-fluoro-2-hydroxycyolopentyl]methyl sulfamate or [(1R,2R,3R,4R)-4-{[5-({1-[(1R)-1-(3-bromophenyl)ethyl]-1H-pyrrol-3-yl}carbonyl)pyrimidin-4-yl]amino}-3-fluoro-2-hydroxycyclopentyl]methyl sulfamate] | < 10 | 100 | –
CC(c1ccc(Cl)o1)n1ccc(C(=O)c2cncnc2N[C@@H]2C[C@H](COS(N)(=O)=O)[C@@H](O)[C@@H]2F)c1 (single isomer, unassigned) [Compound I-364, [(1R,2R,3R,4R)-4-{[5-({1-[(1S)-1-(5-chloro-2-furyl)ethyl]-1H-pyrrol-3-yl}carbonyl)pyrimidin-4-yl]amino}-3-fluoro-2-hydroxycyclopentyl]methyl sulfamate or [(1R,2R,3R,4R)-4-{[5-({1-[(1R)-1-(5-chloro-2-furyl)ethyl]-1H-pyrrol-3-yl}carbonyl)pyrimidin-4-yl]amino}-3-fluoro-2-hydroxycyclopentyl]methyl sulfamate] | < 10 | 99 | –
